Measured values from US20100056606A1, “Combination therapy using budesonide and antisense oligonucleotide targeted to IL4-receptor alpha” (ISIS Pharmaceuticals, Inc., priority 2005, published 2010).

What was measured:
[1] = tested on: OVA sensitized mice; assay: Ovalbumin induced allergic inflammation, acute model (AHR/Penh, BAL eosinophils); format: in vivo, mouse; conditions: for % Eosinophils (BAL) / Penh (100 mg/mL methacholine): day 28
Method: (§1) In the mouse model of allergic inflammation, mice are sensitized and challenged with aerosolized chicken ovalbumin (OVA). Airway responsiveness is assessed by inducing airflow obstruction using a noninvasive method whereby unrestrained conscious OVA sensitized mice are placed into the main chamber of a plethysmograph (Buxco Electronics, Inc. Troy, N.Y.) and challenged with aerosolized methacholine. Pressure difference between this chamber and a reference chamber is used to extrapolate minute volume, breathing frequency and enhanced pause (Penh). Penh is a dimensionless parameter that is a function of total pulmonary airflow (i.e. the sum of the airflow in the upper and lower respiratory tracts) during the respiratory cycle of a mouse and is […] when airflow is greater. This parameter closely correlates with lung resistance as measured by traditional, invasive techniques using ventilated animals (Hamelmann et al., 1997, Am. J. Respir. Crit. Care Med. 156:766-775).
The mouse model of allergic inflammation was used to test the efficacy of an inhaled antisense oligonucleotide targeted to mouse IL-4R alpha. A mismatched IL-4R alpha oligonucleotide (mismatch control oligonucleotide) was used as a negative control. Male Balb/c mice 8-10 weeks old (Charles River Laboratory, Taconic Farms, N.Y.) were maintained in micro-isolator cages housed in a specific pathogen free (SPF) facility. The sentinel cages within the animal colony surveyed negative for viral antibodies and the presence of known mouse pathogens.
For the acute model of allergic inflammation, mice were sensitized with 20 μg of alum-precipitated OVA was injected intraperitoneally on days 0 and 14. On days 24, 25 and 26, animals were exposed for 20 minutes to 1% OVA (in saline) by ultrasonic nebulization. On days 17, 19, 21, 24 and 26 animals were dosed with vehicle alone (saline), 1 μg/kg or 10 μg/kg of ISIS 231894 or the mismatch control oligonucleotide. Oligonucleotides or vehicle were suspended in 0.9% sodium chloride and delivered via inhalation using a nose-only aerosol delivery exposure system. A Lovelace nebulizer set at a flow rate of 1.4 liter per minute feeding into a total flow rate of 10 liters per minute was used to deliver the oligonucleotide. The exposure chamber was equilibrated with an oligonucleotide aerosol solution for 5 minutes before mice were placed in a restraint tube attached to the chamber. Restrained mice were treated for a total of 10 minutes. Analysis was performed on day 28.
Dendritic cells, eosinophils, macrophages and epithelial cells recovered from collagenase digested lung were analyzed for expression of IL-4R alpha protein by flow cytometry. […] A second experiment, in which mice were dosed with 10 μg/kg ISIS 231894, confirmed the efficacy of ISIS 231894 to decrease AHR and eosinophilia in the acute model.

[2] = mouse, in vivo
[3] = tested on: OVA sensitized mice; assay: Mouse model of allergic inflammation, chronic model (Penh, BAL cells, cytokines); format: in vivo; conditions: for % Eosinophils (BAL) / % Neutrophils (BAL): day 76
Method: as §1
In the chronic model of allergic inflammation, mice are subjected to repeated intranasal OVA administration, producing a chronic inflammatory response. In this model, mice were sensitized by intraperitoneal injection with 100 μg of OVA on days 0 and 14 as in the previous models. OVA was administered at a dose of 500 μg on days 14, 27, 28, 29, 47, 61, 73, 74 and 75. Oligonucleotide, either ISIS 231894 or the mismatch control, was administered via the nose-only aerosol delivery exposure system at a dose of either 5 μg/kg or 500 μg/kg on days 31, 38, 45, 52, 59, 66 and 73. Dexamethasone, an anti-inflammatory agent, was administered by intraperitoneal injection at 2.5 mg/kg on days 47, 62, 73, 74 and 75. Analysis of endpoints was performed on day 76, except cytokines which were evaluated on day 62, 6 hours post OVA challenge. Endpoints were similar to those in the acute and rechallenge model, and included Penh (AHR), BAL inflammatory cell accumulation and cytokines and mucus accumulation.

ISIS 231894: lead antisense oligonucleotide targeted to mouse IL-4R alpha; CCGCTGTTCTCAGGTGACAT; SEQ ID NO: 24; 2'-MOE gapmer, phosphorothioate (all phosphorothioate, sugars by position and methylation of C not given here; 2'-MOE gapmer)
eosinophil infiltration in BAL fluid, in words [1]: significant decrease
pulmonary function: lung resistance and compliance, in words [1]: Significant improvement
% Eosinophils (BAL) ([1]; 1 μg/kg inhaled): 35%
Penh (100 mg/mL methacholine) ([1]; 1 μg/kg inhaled): 6
% Eosinophils (BAL) ([1]; 10 μg/kg inhaled): 35%
Penh (100 mg/mL methacholine) ([1]; 10 μg/kg inhaled): 4.5
methacholine-induced AHR (Penh, whole body plethysmography), in words ([1]; 1 and 10 μg/kg inhaled): significant, dose dependent suppression
half life in the lung [2]: 48 to 96 h
% Eosinophils (BAL) ([3]; 5 μg/kg inhaled): 45%
% Neutrophils (BAL) ([3]; 5 μg/kg inhaled): 38%
% Eosinophils (BAL) ([3]; 500 μg/kg inhaled): 29%
% Neutrophils (BAL) ([3]; 500 μg/kg inhaled): 35%
percent of eosinophils in BAL fluid vs vehicle control, in words ([3]; ISIS 231894 500 μg/kg, dexamethasone 2.5 mg/kg ip): significant decrease
methacholine-induced AHR (Penh) vs vehicle, in words ([3]; ISIS 231894 each dose (5, 500 μg/kg), dexamethasone 2.5 mg/kg ip): significant decrease
percent neutrophils in BAL, in words ([3]; both doses of ISIS 231894, dexamethasone 2.5 mg/kg ip): significantly reduced
IL-5 and KC in BAL fluid vs vehicle, in words ([3]; day 62, ISIS 231894 500 μg/kg, dexamethasone 2.5 mg/kg ip): significant reduction
